Experimental data: patent US20250098679A1, “HERBICIDAL PYRIDONE DERIVATIVES” (SYNGENTA CROP PROTECTION AG, priority 2021, published 2025)

Experiments:
Assay type in all cases: in vivo
Details in all cases: evaluated after 13 days
[1] = test system: Amaranthus retoflexus (AMARE); assay: Post-emergence Test, Amaranthus retoflexus (AMARE); set-up: key to percentage damage caused to the plant, AMARE (five-point scale): 5=81-100%, 4=61-80%, 3=41-60%, 2=21-40%, 1=0-20% damage
Procedure, shortened: (§1)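 Tested at 1000 g/ha unless otherwise stated. Plants were held at 24/16 °C day/night with a 14 h light period. Percent damage was read at 13 days and reported in five bands.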

Zea mays (ZEAMX) [2] = assay: Post-emergence Test, Zea mays (ZEAMX); set-up: key to percentage damage caused to the plant, ZEAMX (five-point scale): 5=81-100%, 4=61-80%, 3=41-60%, 2=21-40%, 1=0-20% damage
Procedure, shortened: as §1

Zea mays (ZEAMX) [3] = assay: Pre-emergence Test, Zea mays (ZEAMX)
Setaria faberi (SETFA) [4] = assay: Pre-emergence Test, Setaria faberi (SETFA)
[5] = test system: Ipomoea hederacea (IPOHE); assay: Pre-emergence Test, Ipomoea hederacea (IPOHE)
[6] = test system: Echinochloa crus-galli (ECHCG); assay: Pre-emergence Test, Echinochloa crus-galli (ECHCG)
[7] = test system: Amaranthus palmeri (AMAPA); assay: Post-emergence Test, Amaranthus palmeri (AMAPA); set-up: key: 5=81-100%, 4=61-80%, 3=41-60%, 2=21-40%, 1=0-20% damage
Procedure, shortened: as §1

[8] = test system: Echinochloa crus-galli (ECHCG); assay: Post-emergence Test, Echinochloa crus-galli (ECHCG); set-up: key to percentage damage caused to the plant, ECHCG (five-point scale): 5=81-100%, 4=61-80%, 3=41-60%, 2=21-40%, 1=0-20% damage
Procedure, shortened: as §1

[9] = test system: Amaranthus retoflexus (AMARE); assay: Pre-emergence Test, Amaranthus retoflexus (AMARE)
Setaria faberi (SETFA) [10] = assay: Post-emergence Test, Setaria faberi (SETFA); set-up: key to percentage damage caused to the plant, SETFA (five-point scale): 5=81-100%, 4=61-80%, 3=41-60%, 2=21-40%, 1=0-20% damage
Procedure, shortened: as §1

[11] = test system: Amaranthus palmeri (AMAPA); assay: Pre-emergence Test, Amaranthus palmeri (AMAPA)
[12] = test system: Ipomoea hederacea (IPOHE); assay: Post-emergence Test, Ipomoea hederacea (IPOHE); set-up: key to percentage damage caused to the plant, IPOHE (five-point scale): 5=81-100%, 4=61-80%, 3=41-60%, 2=21-40%, 1=0-20% damage
Procedure, shortened: as §1

CCn1c(Cn2cc(Cl)c(C3CC3)n2)cc(=O)c(C(=O)O)c1-c1ccc(Cl)c(Cl)c1 [Compound 94, 6-[(4-chloro-3-cyclopropyl-pyrazol-1-yl)methyl]-2-(3,4-dichlorophenyl)-1-ethyl-4-oxo-pyridine-3-carboxylic acid]
3 (3=41-60%): percentage damage caused to the plant, AMARE (five-point scale) ([1]; 250 g/Ha) | percentage damage caused to the plant, AMARE (five-point scale) ([1]; 1000 g/ha) | percentage damage caused to the plant, AMAPA (five-point scale) ([7]; 1000 g/ha) | percentage damage caused to the plant, IPOHE (five-point scale) ([12]; 1000 g/ha)
2 (2=21-40%): Pre-emergence Test ECHCG, percentage damage caused to the plant (five-point scale) ([6]; 250 g/Ha (*)) | Pre-emergence Test ECHCG, percentage damage caused to the plant (five-point scale) ([6]; 1000 g/ha) | percentage damage caused to the plant, AMAPA (five-point scale) ([7]; 250 g/Ha) | Pre-emergence Test AMAPA, percentage damage caused to the plant (five-point scale) ([11]; 1000 g/ha)
4 (4=61-80%): percentage damage caused to the plant, ECHCG (five-point scale) ([8]; 250 g/Ha) | percentage damage caused to the plant, SETFA (five-point scale) (Setaria faberi (SETFA) [10]; 1000 g/ha)
1 (1=0-20%): Pre-emergence Test SETFA, percentage damage caused to the plant (five-point scale) (Setaria faberi (SETFA) [4]; 250 g/Ha (*)) | Pre-emergence Test SETFA, percentage damage caused to the plant (five-point scale) (Setaria faberi (SETFA) [4]; 1000 g/ha) | Pre-emergence Test IPOHE, percentage damage caused to the plant (five-point scale) ([5]; 1000 g/ha) | percentage damage caused to the plant, ECHCG (five-point scale) ([8]; 1000 g/ha) | Pre-emergence Test AMARE, percentage damage caused to the plant (five-point scale) ([9]; 1000 g/ha) | Pre-emergence Test AMAPA, percentage damage caused to the plant (five-point scale) ([11]; 250 g/Ha (*))
0: percentage damage caused to the plant, ZEAMX (five-point scale) (Zea mays (ZEAMX) [2]; 250 g/Ha) | percentage damage caused to the plant, ZEAMX (five-point scale) (Zea mays (ZEAMX) [2]; 1000 g/ha) | Pre-emergence Test ZEAMX, percentage damage caused to the plant (five-point scale) (Zea mays (ZEAMX) [3]; 250 g/Ha (*)) | Pre-emergence Test ZEAMX, percentage damage caused to the plant (five-point scale) (Zea mays (ZEAMX) [3]; 1000 g/ha) | Pre-emergence Test IPOHE, percentage damage caused to the plant (five-point scale) ([5]; 250 g/Ha (*)) | Pre-emergence Test AMARE, percentage damage caused to the plant (five-point scale) ([9]; 250 g/Ha (*)) | percentage damage caused to the plant, SETFA (five-point scale) (Setaria faberi (SETFA) [10]; 250 g/Ha) | percentage damage caused to the plant, IPOHE (five-point scale) ([12]; 250 g/Ha)

CCn1c(Cn2nccc2C#N)cc(=O)c(C(=O)O)c1-c1ccc(Cl)c(Cl)c1 [Compound 176, 6-[(5-cyanopyrazol-1-yl)methyl]-2-(3,4-dichlorophenyl)-1-ethyl-4-oxo-pyridine-3-carboxylic acid]
3 (3=41-60%): percentage damage caused to the plant, AMARE (five-point scale) ([1]; 1000 g/ha) | percentage damage caused to the plant, IPOHE (five-point scale) ([12]; 1000 g/ha)
0: percentage damage caused to the plant, AMARE (five-point scale) ([1]; 250 g/Ha) | percentage damage caused to the plant, ZEAMX (five-point scale) (Zea mays (ZEAMX) [2]; 250 g/Ha) | Pre-emergence Test ZEAMX, percentage damage caused to the plant (five-point scale) (Zea mays (ZEAMX) [3]; 250 g/Ha (*)) | Pre-emergence Test ZEAMX, percentage damage caused to the plant (five-point scale) (Zea mays (ZEAMX) [3]; 1000 g/ha) | Pre-emergence Test IPOHE, percentage damage caused to the plant (five-point scale) ([5]; 250 g/Ha (*)) | percentage damage caused to the plant, AMAPA (five-point scale) ([7]; 250 g/Ha) | Pre-emergence Test AMARE, percentage damage caused to the plant (five-point scale) ([9]; 250 g/Ha (*)) | Pre-emergence Test AMARE, percentage damage caused to the plant (five-point scale) ([9]; 1000 g/ha)
2 (2=21-40%): Pre-emergence Test ECHCG, percentage damage caused to the plant (five-point scale) ([6]; 250 g/Ha (*)) | percentage damage caused to the plant, ECHCG (five-point scale) ([8]; 250 g/Ha) | percentage damage caused to the plant, SETFA (five-point scale) (Setaria faberi (SETFA) [10]; 250 g/Ha) | Pre-emergence Test AMAPA, percentage damage caused to the plant (five-point scale) ([11]; 1000 g/ha) | percentage damage caused to the plant, IPOHE (five-point scale) ([12]; 250 g/Ha)
1 (1=0-20%): percentage damage caused to the plant, ZEAMX (five-point scale) (Zea mays (ZEAMX) [2]; 1000 g/ha) | Pre-emergence Test IPOHE, percentage damage caused to the plant (five-point scale) ([5]; 1000 g/ha) | Pre-emergence Test AMAPA, percentage damage caused to the plant (five-point scale) ([11]; 250 g/Ha (*))
4 (4=61-80%): Pre-emergence Test SETFA, percentage damage caused to the plant (five-point scale) (Setaria faberi (SETFA) [4]; 250 g/Ha (*)) | Pre-emergence Test SETFA, percentage damage caused to the plant (five-point scale) (Setaria faberi (SETFA) [4]; 1000 g/ha) | Pre-emergence Test ECHCG, percentage damage caused to the plant (five-point scale) ([6]; 1000 g/ha) | percentage damage caused to the plant, ECHCG (five-point scale) ([8]; 1000 g/ha) | percentage damage caused to the plant, SETFA (five-point scale) (Setaria faberi (SETFA) [10]; 1000 g/ha)

CCn1c(Cn2nc(C(F)(F)F)cc2OCCOC)cc(=O)c(C(=O)O)c1-c1ccc(Cl)c(Cl)c1 [Compound 144, 2-(3,4-dichlorophenyl)-1-ethyl-6-[[5-(2-methoxyethoxy)-3-(trifluoromethyl)pyrazol-1-yl]methyl]-4-oxo-pyridine-3-carboxylic acid]
0: percentage damage caused to the plant, ZEAMX (five-point scale) (Zea mays (ZEAMX) [2]; 250 g/Ha) | Pre-emergence Test ZEAMX, percentage damage caused to the plant (five-point scale) (Zea mays (ZEAMX) [3]; 1000 g/ha) | percentage damage caused to the plant, AMAPA (five-point scale) ([7]; 250 g/Ha) | Pre-emergence Test AMARE, percentage damage caused to the plant (five-point scale) ([9]; 1000 g/ha) | Pre-emergence Test AMAPA, percentage damage caused to the plant (five-point scale) ([11]; 1000 g/ha)
5 (5=81-100%): Pre-emergence Test SETFA, percentage damage caused to the plant (five-point scale) (Setaria faberi (SETFA) [4]; 1000 g/ha)
2 (2=21-40%): percentage damage caused to the plant, AMARE (five-point scale) ([1]; 1000 g/ha) | percentage damage caused to the plant, ECHCG (five-point scale) ([8]; 250 g/Ha) | percentage damage caused to the plant, SETFA (five-point scale) (Setaria faberi (SETFA) [10]; 250 g/Ha) | percentage damage caused to the plant, IPOHE (five-point scale) ([12]; 1000 g/ha)
3 (3=41-60%): percentage damage caused to the plant, ZEAMX (five-point scale) (Zea mays (ZEAMX) [2]; 1000 g/ha) | percentage damage caused to the plant, ECHCG (five-point scale) ([8]; 1000 g/ha) | percentage damage caused to the plant, SETFA (five-point scale) (Setaria faberi (SETFA) [10]; 1000 g/ha)
1 (1=0-20%): percentage damage caused to the plant, AMARE (five-point scale) ([1]; 250 g/Ha) | Pre-emergence Test IPOHE, percentage damage caused to the plant (five-point scale) ([5]; 1000 g/ha) | Pre-emergence Test ECHCG, percentage damage caused to the plant (five-point scale) ([6]; 1000 g/ha) | percentage damage caused to the plant, AMAPA (five-point scale) ([7]; 1000 g/ha) | percentage damage caused to the plant, IPOHE (five-point scale) ([12]; 250 g/Ha)

CCOC(=O)c1c(-c2ccc(Cl)c(Cl)c2)n(CC)c(Cn2cnc(C(F)(F)F)n2)cc1=O [Compound 12, ethyl 2-(3,4-dichlorophenyl)-1-ethyl-4-oxo-6-[[3-(trifluoromethyl)-1,2,4-triazol-1-yl]methane]pyridine-3-carboxylate]
0: Pre-emergence Test ZEAMX, percentage damage caused to the plant (five-point scale) (Zea mays (ZEAMX) [3]; 1000 g/ha) | Pre-emergence Test SETFA, percentage damage caused to the plant (five-point scale) (Setaria faberi (SETFA) [4]; 1000 g/ha) | Pre-emergence Test IPOHE, percentage damage caused to the plant (five-point scale) ([5]; 1000 g/ha) | Pre-emergence Test ECHCG, percentage damage caused to the plant (five-point scale) ([6]; 1000 g/ha) | Pre-emergence Test AMARE, percentage damage caused to the plant (five-point scale) ([9]; 1000 g/ha) | Pre-emergence Test AMAPA, percentage damage caused to the plant (five-point scale) ([11]; 1000 g/ha)
1 (1=0-20%): percentage damage caused to the plant, AMARE (five-point scale) ([1]; 1000 g/ha) | percentage damage caused to the plant, ZEAMX (five-point scale) (Zea mays (ZEAMX) [2]; 1000 g/ha) | percentage damage caused to the plant, ECHCG (five-point scale) ([8]; 1000 g/ha) | percentage damage caused to the plant, SETFA (five-point scale) (Setaria faberi (SETFA) [10]; 1000 g/ha)
2 (2=21-40%): percentage damage caused to the plant, AMAPA (five-point scale) ([7]; 1000 g/ha) | percentage damage caused to the plant, IPOHE (five-point scale) ([12]; 1000 g/ha)

CCn1c(Cn2ccc(C(F)(F)F)n2)c(Br)c(=O)c(C(=O)O)c1-c1ccc(Cl)c(Cl)c1 [Compound 18, 5-bromo-2-(3,4-dichlorophenyl)-1-ethyl-4-oxo-6-[[3-(trifluoromethyl)pyrazol-1-yl]methyl]pyridine-3-carboxylic acid]
3 (3=41-60%): percentage damage caused to the plant, ECHCG (five-point scale) ([8]; 1000 g/ha) | percentage damage caused to the plant, SETFA (five-point scale) (Setaria faberi (SETFA) [10]; 1000 g/ha)
0: Pre-emergence Test ZEAMX, percentage damage caused to the plant (five-point scale) (Zea mays (ZEAMX) [3]; 1000 g/ha) | Pre-emergence Test IPOHE, percentage damage caused to the plant (five-point scale) ([5]; 1000 g/ha) | percentage damage caused to the plant, AMAPA (five-point scale) ([7]; 250 g/Ha) | Pre-emergence Test AMARE, percentage damage caused to the plant (five-point scale) ([9]; 1000 g/ha) | Pre-emergence Test AMAPA, percentage damage caused to the plant (five-point scale) ([11]; 1000 g/ha)
2 (2=21-40%): percentage damage caused to the plant, ZEAMX (five-point scale) (Zea mays (ZEAMX) [2]; 1000 g/ha) | Pre-emergence Test SETFA, percentage damage caused to the plant (five-point scale) (Setaria faberi (SETFA) [4]; 1000 g/ha) | percentage damage caused to the plant, AMAPA (five-point scale) ([7]; 1000 g/ha)
1 (1=0-20%): percentage damage caused to the plant, AMARE (five-point scale) ([1]; 250 g/Ha) | percentage damage caused to the plant, AMARE (five-point scale) ([1]; 1000 g/ha) | percentage damage caused to the plant, ZEAMX (five-point scale) (Zea mays (ZEAMX) [2]; 250 g/Ha) | Pre-emergence Test ECHCG, percentage damage caused to the plant (five-point scale) ([6]; 1000 g/ha) | percentage damage caused to the plant, ECHCG (five-point scale) ([8]; 250 g/Ha) | percentage damage caused to the plant, SETFA (five-point scale) (Setaria faberi (SETFA) [10]; 250 g/Ha) | percentage damage caused to the plant, IPOHE (five-point scale) ([12]; 250 g/Ha) | percentage damage caused to the plant, IPOHE (five-point scale) ([12]; 1000 g/ha)
